In general, Ki refers to the equilibrium dissociation constant of an inhibitor or competing ligand from its target.

The source of these data is patent US8937064B2, “Pyrazolo[1,5-a]pyrimidines useful as JAK2 inhibitors” (Vertex Pharmaceuticals Incorporated, priority 2007, dated 2015).

SMILES strings stand for the structures.

In the first test the target is JAK-2 enzyme (Homo sapiens, UniProt O60674). Briefly: JAK2 Inhibition Assay.
Sequence of JAK-2 enzyme (O60674 whole entry): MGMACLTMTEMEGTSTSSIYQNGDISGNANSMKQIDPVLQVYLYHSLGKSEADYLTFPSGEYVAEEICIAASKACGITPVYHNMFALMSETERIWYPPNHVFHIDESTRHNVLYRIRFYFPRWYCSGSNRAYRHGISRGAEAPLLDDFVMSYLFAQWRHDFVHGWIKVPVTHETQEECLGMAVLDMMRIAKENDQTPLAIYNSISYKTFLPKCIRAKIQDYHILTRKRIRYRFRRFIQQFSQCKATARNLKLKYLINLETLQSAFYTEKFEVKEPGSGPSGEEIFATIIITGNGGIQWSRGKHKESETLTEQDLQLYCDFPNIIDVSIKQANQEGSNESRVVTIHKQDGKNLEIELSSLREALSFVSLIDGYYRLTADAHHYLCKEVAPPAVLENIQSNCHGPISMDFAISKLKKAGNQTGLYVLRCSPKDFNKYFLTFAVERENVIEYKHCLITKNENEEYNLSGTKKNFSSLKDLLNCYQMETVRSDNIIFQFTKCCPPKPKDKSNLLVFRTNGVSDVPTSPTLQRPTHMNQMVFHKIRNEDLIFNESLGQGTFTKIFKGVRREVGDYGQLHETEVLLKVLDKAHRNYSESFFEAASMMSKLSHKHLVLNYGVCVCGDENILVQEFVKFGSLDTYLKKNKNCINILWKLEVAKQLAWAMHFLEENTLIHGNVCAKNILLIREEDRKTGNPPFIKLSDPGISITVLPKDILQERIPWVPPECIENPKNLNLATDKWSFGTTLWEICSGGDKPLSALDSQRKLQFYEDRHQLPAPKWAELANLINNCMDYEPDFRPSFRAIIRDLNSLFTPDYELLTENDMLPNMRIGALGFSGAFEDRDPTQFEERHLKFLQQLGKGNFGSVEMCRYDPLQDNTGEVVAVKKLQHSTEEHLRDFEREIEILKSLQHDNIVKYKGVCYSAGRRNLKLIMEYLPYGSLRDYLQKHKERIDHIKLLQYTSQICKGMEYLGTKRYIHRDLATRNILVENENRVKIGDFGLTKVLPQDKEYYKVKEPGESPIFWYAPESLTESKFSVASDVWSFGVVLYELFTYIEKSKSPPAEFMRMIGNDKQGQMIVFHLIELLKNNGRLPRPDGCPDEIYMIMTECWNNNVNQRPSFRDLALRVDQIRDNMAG
Conditions: not given
As for `CCC[C@H](Nc1cc(-c2c(N)nn3cccnc23)ncn1)c1ccc(F)c(F)c1` [Compound 98], the Ki was less than 0.01 µM.

Take `CC(C)[C@H](Nc1cc(-c2c(N)nn3ccc(C(F)(F)F)nc23)ncn1)c1ccc(F)cc1F` [Compound 136]: the inhibition constant (Ki) is 0.01 to 0.1 µM.

`O=C(Nc1ccnc(-c2cnn3cccnc23)c1)c1ccc(F)c(F)c1` [Compound 231] yielded a Ki of 0.1 to 0.5 µM.

Compound `Nc1nn2cccnc2c1-c1cc(NCc2ccco2)ncn1` [Compound 24] came in with a Ki of 0.01 to 0.1 µM.

The compound `COc1ccccc1CNc1cc(-c2c(N)nn3cccnc23)ncn1` [Compound 5] showed a Ki of less than 0.01 µM.

In the case of `Nc1nn2cccnc2c1-c1cc(N2CCc3ccccc3C2)ncn1` [Compound 42], the Ki fell in the range of 0.01 to 0.1 µM.

Consider `Cc1ccn2nc(N)c(-c3cc(N[C@@H](C)c4ccc(F)cc4)ncn3)c2n1` [Compound 95], for which the Ki is less than 0.01 µM.

Compound `C[C@H](Nc1cc(-c2c(N)nn3cccnc23)nc(C#N)n1)c1ccc(F)cc1F` [Compound 140] gave a Ki of less than 0.01 µM.

Regarding `Nc1nn2cccnc2c1-c1cc(O[C@@H](c2ccccc2)C(F)(F)F)ncn1` [Compound 70], the Ki was 0.1 to 0.5 µM.

In the case of `Nc1nn2cccnc2c1-c1cc(N[C@H]2CCCc3ccccc32)ncn1` [Compound 76], the Ki lay within 0.01 to 0.1 µM.

The compound `C[C@H](Nc1cc(-c2cnn3cccnc23)nc(OCCN2CCOCC2)n1)c1ccc(F)cc1F` [Compound 213] had a Ki of less than 0.01 µM.

Consider `C[C@H](Nc1cc(-c2c(N)nn3cccnc23)nc(S(C)(=O)=O)n1)c1ccc(F)cc1` [Compound 100], for which the Ki was less than 0.01 µM.

As to `CC[C@H](Nc1cc(-c2c(N)nn3cccnc23)ncn1)c1ccc(Cl)cc1F` [Compound 83], the Ki was less than 0.01 µM.

In turn, `C#CCCCOc1nc(N[C@@H](C)c2ccc(F)cc2)cc(-c2c(N)nn3cccnc23)n1` [Compound 183] showed a Ki of less than 0.01 µM.

With `C[C@H](Nc1cc(-c2cnn3cccnc23)nc(OC2CCNC2)n1)c1ccc(F)cc1F` (stereo partly shown) [Compound 218], the inhibitory constant (Ki) fell in the range of 0.01 to 0.1 µM.

`CCC[C@H](Nc1cc(-c2c(N)nn3cccnc23)nc(N2CCOCC2)n1)c1ccc(F)cc1F` [Compound 107]: the Ki lay in the range of 0.01 to 0.1 µM.

Compound `CCCOc1nc(N[C@@H](C)c2ccc(F)cc2)cc(-c2c(N)nn3cccnc23)n1` [Compound 153] showed a Ki of less than 0.01 µM.

With `C[C@H](Nc1cc(-c2cnn3cccnc23)nc(OCCC2CCCCN2)n1)c1ccc(F)cc1F` (stereo partly shown) [Compound 198], the Ki was less than 0.01 µM.

`C[C@H](Nc1cc(-c2c(N)nn3cccnc23)nc(OCC2COC(C)(C)O2)n1)c1ccc(F)cc1` (stereo partly shown) [Compound 168]: the Ki is less than 0.01 µM.

On to `CC/C=C\COc1nc(N[C@@H](C)c2ccc(F)cc2)cc(-c2c(N)nn3cccnc23)n1` [Compound 165], for which the inhibitory constant (Ki) lay within 0.01 to 0.1 µM.

In turn, `Nc1nn2cccnc2c1-c1cc(O[C@H](c2ccccc2)C(F)(F)F)ncn1` [Compound 69] registered a Ki of 0.01 to 0.1 µM.

`O=C(Nc1ccnc(-c2cnn3cccnc23)c1)c1ccc(F)cc1F` [Compound 229]: the Ki is 0.1 to 0.5 µM.

As for `CCC[C@H](Nc1cc(-c2c(N)nn3cccnc23)nc(S(C)(=O)=O)n1)c1ccc(F)cc1F` [Compound 112], the Ki is less than 0.01 µM.

In a further test the target is T1, JAK3 (Homo sapiens, UniProt P52333).
T1 sequence (P52333 1-1124): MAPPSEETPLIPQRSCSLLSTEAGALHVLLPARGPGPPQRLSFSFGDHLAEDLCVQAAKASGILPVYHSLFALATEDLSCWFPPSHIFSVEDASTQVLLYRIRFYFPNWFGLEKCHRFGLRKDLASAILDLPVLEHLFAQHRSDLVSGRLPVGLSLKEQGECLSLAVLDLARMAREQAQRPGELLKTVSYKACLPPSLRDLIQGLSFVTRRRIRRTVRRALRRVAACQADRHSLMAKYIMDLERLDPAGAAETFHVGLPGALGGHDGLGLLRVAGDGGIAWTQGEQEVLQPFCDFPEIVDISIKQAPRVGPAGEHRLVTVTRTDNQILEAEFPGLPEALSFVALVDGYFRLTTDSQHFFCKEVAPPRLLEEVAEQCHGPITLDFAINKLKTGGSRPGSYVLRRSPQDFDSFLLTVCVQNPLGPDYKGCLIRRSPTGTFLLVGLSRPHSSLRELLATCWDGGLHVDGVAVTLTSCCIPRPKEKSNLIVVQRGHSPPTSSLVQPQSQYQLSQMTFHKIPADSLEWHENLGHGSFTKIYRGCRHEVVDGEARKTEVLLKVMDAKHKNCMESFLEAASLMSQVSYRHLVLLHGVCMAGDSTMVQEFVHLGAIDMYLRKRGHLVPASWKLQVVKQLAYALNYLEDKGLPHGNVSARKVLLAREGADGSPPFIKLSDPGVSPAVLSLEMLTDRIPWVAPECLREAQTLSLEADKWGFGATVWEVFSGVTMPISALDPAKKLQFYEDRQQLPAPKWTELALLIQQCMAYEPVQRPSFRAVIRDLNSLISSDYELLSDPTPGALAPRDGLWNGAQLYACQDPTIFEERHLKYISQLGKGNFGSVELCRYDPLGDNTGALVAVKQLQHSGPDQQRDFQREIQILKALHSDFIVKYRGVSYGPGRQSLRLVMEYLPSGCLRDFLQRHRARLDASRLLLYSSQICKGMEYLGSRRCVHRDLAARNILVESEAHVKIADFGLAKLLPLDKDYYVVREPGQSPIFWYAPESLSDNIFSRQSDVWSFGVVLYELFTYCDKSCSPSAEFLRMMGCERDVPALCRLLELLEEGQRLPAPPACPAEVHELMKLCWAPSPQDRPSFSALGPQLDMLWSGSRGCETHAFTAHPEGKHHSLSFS
Briefly: JAK3 Inhibition Assay. Format: biochemical. As to conditions: 1 nM JAK3, 1 μM poly(Glu)4Tyr, 5 μM ATP, 25° C., 33P incorporation.
Compound `CCC[C@H](Nc1cc(-c2c(N)nn3cccnc23)ncn1)c1ccc(F)c(F)c1` [Compound 98] had a Ki of 0.01 to 0.1 µM.

Compound `CC(C)[C@H](Nc1cc(-c2c(N)nn3ccc(C(F)(F)F)nc23)ncn1)c1ccc(F)cc1F` [Compound 136] came in with a Ki of 0.1 to 0.5 µM.

`O=C(Nc1ccnc(-c2cnn3cccnc23)c1)c1ccc(F)c(F)c1` [Compound 231] yielded a Ki of 0.5 to 5 µM.

Take `Nc1nn2cccnc2c1-c1cc(NCc2ccco2)ncn1` [Compound 24]: the Ki fell in the range of 0.01 to 0.1 µM.

For the compound `COc1ccccc1CNc1cc(-c2c(N)nn3cccnc23)ncn1` [Compound 5], the Ki fell in the range of 0.01 to 0.1 µM.

On to `Nc1nn2cccnc2c1-c1cc(N2CCc3ccccc3C2)ncn1` [Compound 42], for which the Ki was 0.1 to 0.5 µM.

`Cc1ccn2nc(N)c(-c3cc(N[C@@H](C)c4ccc(F)cc4)ncn3)c2n1` [Compound 95] showed a Ki of 0.01 to 0.1 µM.

In the case of `C[C@H](Nc1cc(-c2c(N)nn3cccnc23)nc(C#N)n1)c1ccc(F)cc1F` [Compound 140], the Ki was less than 0.01 µM.

The compound `Nc1nn2cccnc2c1-c1cc(O[C@@H](c2ccccc2)C(F)(F)F)ncn1` [Compound 70] gave a Ki of 0.5 to 5 µM.

As for `Nc1nn2cccnc2c1-c1cc(N[C@H]2CCCc3ccccc32)ncn1` [Compound 76], the Ki lay within 0.1 to 0.5 µM.

`C[C@H](Nc1cc(-c2cnn3cccnc23)nc(OCCN2CCOCC2)n1)c1ccc(F)cc1F` [Compound 213] returned a Ki of 0.01 to 0.1 µM.

In turn, `C[C@H](Nc1cc(-c2c(N)nn3cccnc23)nc(S(C)(=O)=O)n1)c1ccc(F)cc1` [Compound 100] displayed a Ki of less than 0.01 µM.

In turn, `CC[C@H](Nc1cc(-c2c(N)nn3cccnc23)ncn1)c1ccc(Cl)cc1F` [Compound 83] returned a Ki of 0.1 to 0.5 µM.

`C#CCCCOc1nc(N[C@@H](C)c2ccc(F)cc2)cc(-c2c(N)nn3cccnc23)n1` [Compound 183] had a Ki of 0.01 to 0.1 µM.

Take `C[C@H](Nc1cc(-c2cnn3cccnc23)nc(OC2CCNC2)n1)c1ccc(F)cc1F` (stereo partly shown) [Compound 218]: the Ki lay in the range of 0.1 to 0.5 µM.

As to `CCC[C@H](Nc1cc(-c2c(N)nn3cccnc23)nc(N2CCOCC2)n1)c1ccc(F)cc1F` [Compound 107], the Ki was 0.1 to 0.5 µM.

As to `CCCOc1nc(N[C@@H](C)c2ccc(F)cc2)cc(-c2c(N)nn3cccnc23)n1` [Compound 153], the Ki is 0.01 to 0.1 µM.

`C[C@H](Nc1cc(-c2cnn3cccnc23)nc(OCCC2CCCCN2)n1)c1ccc(F)cc1F` (stereo partly shown) [Compound 198] came in with a Ki of 0.01 to 0.1 µM.

On to `C[C@H](Nc1cc(-c2c(N)nn3cccnc23)nc(OCC2COC(C)(C)O2)n1)c1ccc(F)cc1` (stereo partly shown) [Compound 168], for which the Ki is 0.01 to 0.1 µM.

For `CC/C=C\COc1nc(N[C@@H](C)c2ccc(F)cc2)cc(-c2c(N)nn3cccnc23)n1` [Compound 165], the Ki fell in the range of 0.1 to 0.5 µM.

In turn, `Nc1nn2cccnc2c1-c1cc(O[C@H](c2ccccc2)C(F)(F)F)ncn1` [Compound 69] yielded a Ki of 0.1 to 0.5 µM.

Regarding `O=C(Nc1ccnc(-c2cnn3cccnc23)c1)c1ccc(F)cc1F` [Compound 229], the Ki lay in the range of 0.5 to 5 µM.

As to `CCC[C@H](Nc1cc(-c2c(N)nn3cccnc23)nc(S(C)(=O)=O)n1)c1ccc(F)cc1F` [Compound 112], the Ki lay within 0.01 to 0.1 µM.
